Tests used:
[1] = Short term on-card stability; conditions: day 28, stored in the presence of air (RT+Air and −20° C.+Air)
[2] = morphine value marked (base); cited from earlier work
[3] = Blood:Plasma binding ratio of guanfacine test sample; format: in vitro ADME; conditions: whole blood sample; read-out: Blood:Plasma binding ratio (Ke/p)
Procedure: The multilayer device of the invention was tested using a known hypertension and ADHD drug, guanfacine, with its [^13C, ^15N3] internal standard, Guanfacine (C9H9Cl2N3O) has a monoisotopic mass of 245.0123 Da, while the internal standard [^13C, ^15N3]-guanfacine (^13CC8H9Cl2^15N3O) has a monoisotopic mass of 249.0067 Da. These compounds were tested using a whole blood sample with a Blood:Plasma binding ratio (Ke/p) of 1.5 and analyzed using LC-MS/MS bioanalysis following the protocol described here.

[4] = High QC 900 ng/mL, ANOVA p<0.0001

Structure (SMILES) | on-card stability [1, 4] | on-card stability ([1]; LLOQ 5 ng/mL, ANOVA) | pKa [2] | blood plasma ratio [3]
COc1ccc2c3c1O[C@H]1C(=O)CC[C@H]4[C@@H](C2)N(C)CC[C@]314 [Hydrocodone] | significant decompositions | significant decomposition |  | 
CNC(C)Cc1ccc2c(c1)OCO2 (centres unmarked) [MDMA, 3,4-methylenedioxymethamphetamine] |  |  | 9.9 | 
CNC(C)C(=O)c1ccc(C)cc1 (centres unmarked) [Mephedrone] | significant decompositions | significant decomposition | 9.0 | 
CNC(C)Cc1ccccc1 (centres unmarked) [Methamphetamine] |  |  | 9.9 | 
COc1ccc2c3c1O[C@H]1C(=O)CC[C@@]4(O)[C@@H](C2)N(C)CC[C@]314 [Oxycodone] | significant decompositions | significant decomposition |  | 
CC(C)(N)Cc1ccccc1 [Phentermine] |  |  | 10.1 | 
N=C(N)NC(=O)Cc1c(Cl)cccc1Cl [guanfacine] |  |  |  | 1.5
